# Tested on: KRAS-mutant PDC complex spheroid viability
# Test: Anticancer human tumor 186277-243-T-J2-PDC patient-derived colon adenocarcinoma cell line growth inhibition [KRAS2]
# Details: for IC50: curve of first compound; for viability, T/C: stronger effect = lower value
# Outline: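 KRAS-mutant tumor cells were grown as spheroids with HUVEC endothelial cells and human MSCs as stroma. Targeted agents were tested alone and with KRAS pathway inhibitors. Doses started at or near clinical Cmax, or 10 microM, descending half-log.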
# [1] = second compound 0.1 µM, first compound 0.000316 µM
# [2] = second compound 0.1 µM, first compound 0.001 µM
# [3] = second compound 0.1 µM, first compound 0.00316 µM
# [4] = second compound 0.1 µM, first compound 0.01 µM
# [5] = second compound 0.1 µM, first compound 0.0316 µM
# [6] = second compound 0.316 µM, first compound 0.000316 µM
# [7] = second compound 0.316 µM, first compound 0.001 µM
# [8] = second compound 0.316 µM, first compound 0.00316 µM
# [9] = second compound 0.316 µM, first compound 0.01 µM
# [10] = second compound 0.316 µM, first compound 0.0316 µM
# [11] = second compound 1 µM, first compound 0.000316 µM
# [12] = second compound 1 µM, first compound 0.001 µM
# [13] = second compound 1 µM, first compound 0.00316 µM
# [14] = second compound 1 µM, first compound 0.01 µM
# [15] = second compound 1 µM, first compound 0.0316 µM
# [16] = second compound 3.16 µM, first compound 0.000316 µM
# [17] = second compound 3.16 µM, first compound 0.001 µM
# [18] = second compound 3.16 µM, first compound 0.00316 µM
# [19] = second compound 3.16 µM, first compound 0.01 µM
# [20] = second compound 3.16 µM, first compound 0.0316 µM
# [21] = second compound 10 µM, first compound 0.000316 µM
# [22] = second compound 10 µM, first compound 0.001 µM
# [23] = second compound 10 µM, first compound 0.00316 µM
# [24] = second compound 10 µM, first compound 0.01 µM
# [25] = second compound 10 µM, first compound 0.0316 µM
# [26] = second compound 0.1 µM, first compound 0.1 µM
# [27] = second compound 0.316 µM, first compound 0.1 µM
# [28] = second compound 1 µM, first compound 0.1 µM
# [29] = second compound 3.16 µM, first compound 0.1 µM
# [30] = second compound 10 µM, first compound 0.1 µM
# [31] = second compound 0.1 µM, first compound 0.316 µM
# [32] = second compound 0.1 µM, first compound 1 µM
# [33] = second compound 0.1 µM, first compound 3.16 µM
# [34] = second compound 0.1 µM, first compound 10 µM
# [35] = second compound 0.316 µM, first compound 0.316 µM
# [36] = second compound 0.316 µM, first compound 1 µM
# [37] = second compound 0.316 µM, first compound 3.16 µM
# [38] = second compound 0.316 µM, first compound 10 µM
# [39] = second compound 1 µM, first compound 0.316 µM
# [40] = second compound 1 µM, first compound 1 µM
# [41] = second compound 1 µM, first compound 3.16 µM
# [42] = second compound 1 µM, first compound 10 µM
# [43] = second compound 3.16 µM, first compound 0.316 µM
# [44] = second compound 3.16 µM, first compound 1 µM
# [45] = second compound 3.16 µM, first compound 3.16 µM
# [46] = second compound 3.16 µM, first compound 10 µM
# [47] = second compound 10 µM, first compound 0.316 µM
# [48] = second compound 10 µM, first compound 1 µM
# [49] = second compound 10 µM, first compound 3.16 µM
# [50] = second compound 10 µM, first compound 10 µM
# 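For viability, T/C in this document: viability read after seven days of compound exposure; 100% = DMSO vehicle-treated spheroids so lower means less viable.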
compound,measurement,setting,value
CC(=O)Nc1cccc(-n2c(=O)n(C3CC3)c(=O)c3c(Nc4ccc(I)cc4F)n(C)c(=O)c(C)c32)c1 + CNCc1ccccc1-c1csc(C(C)Nc2nc(C)nc3cc(OC)c(OC)cc23)c1,IC50,second compound 0.1 µM,0.52 nM
same,IC50,second compound 0.316 µM,0.302 nM
same,IC50,second compound 1 µM,0.245 nM
same,IC50,second compound 3.16 µM,< 0.1 nM
same,IC50,second compound 10 µM,< 0.1 nM
same,"viability, T/C","second compound 0.1 µM, first compound 0.0001 µM",109%
same,"viability, T/C",[1],75.5%
same,"viability, T/C",[2],16.4%
same,"viability, T/C",[3],4.46%
same,"viability, T/C",[4],2.28%
same,"viability, T/C",[5],1.31%
same,"viability, T/C","second compound 0.316 µM, first compound 0.0001 µM",103%
same,"viability, T/C",[6],47.9%
same,"viability, T/C",[7],10.8%
same,"viability, T/C",[8],3.37%
same,"viability, T/C",[9],1.77%
same,"viability, T/C",[10],1.09%
same,"viability, T/C","second compound 1 µM, first compound 0.0001 µM",115%
same,"viability, T/C",[11],31.3%
same,"viability, T/C",[12],6.94%
same,"viability, T/C",[13],1.83%
same,"viability, T/C",[14],1.15%
same,"viability, T/C",[15],0.51%
same,"viability, T/C","second compound 3.16 µM, first compound 0.0001 µM",40.6%
same,"viability, T/C",[16],0.37%
same,"viability, T/C",[17],0.04%
same,"viability, T/C",[18],0.02%
same,"viability, T/C",[19],0.02%
same,"viability, T/C",[20],0.11%
same,"viability, T/C","second compound 10 µM, first compound 0.0001 µM",0.14%
same,"viability, T/C",[21],0.11%
same,"viability, T/C",[22],0.1%
same,"viability, T/C",[23],0.1%
same,"viability, T/C",[24],0.11%
same,"viability, T/C",[25],0.18%
CN(C)C/C=C/C(=O)Nc1cc2c(Nc3ccc(F)c(Cl)c3)ncnc2cc1O[C@H]1CCOC1 + CNCc1ccccc1-c1csc(C(C)Nc2nc(C)nc3cc(OC)c(OC)cc23)c1,IC50,second compound 0.1 µM,> 100 nM
same,IC50,second compound 0.316 µM,> 100 nM
same,IC50,second compound 1 µM,> 100 nM
same,IC50,second compound 3.16 µM,7.32 nM
same,IC50,second compound 10 µM,< 0.316 nM
same,"viability, T/C",[1],100%
same,"viability, T/C",[2],100%
same,"viability, T/C",[3],110%
same,"viability, T/C",[4],117%
same,"viability, T/C",[5],127%
same,"viability, T/C",[26],108%
same,"viability, T/C",[6],110%
same,"viability, T/C",[7],96.2%
same,"viability, T/C",[8],113%
same,"viability, T/C",[9],119%
same,"viability, T/C",[10],109%
same,"viability, T/C",[27],96%
same,"viability, T/C",[11],108%
same,"viability, T/C",[12],107%
same,"viability, T/C",[13],102%
same,"viability, T/C",[14],120%
same,"viability, T/C",[15],119%
same,"viability, T/C",[28],95.9%
same,"viability, T/C",[16],108%
same,"viability, T/C",[17],103%
same,"viability, T/C",[18],109%
same,"viability, T/C",[19],29%
same,"viability, T/C",[20],16.4%
same,"viability, T/C",[29],5.67%
same,"viability, T/C",[21],0.21%
same,"viability, T/C",[22],0.22%
same,"viability, T/C",[23],0.19%
same,"viability, T/C",[24],0.15%
same,"viability, T/C",[25],0.13%
same,"viability, T/C",[30],0.33%
COC(=O)c1ccc2c(C(=Nc3ccc(N(C)C(=O)CN4CCN(C)CC4)cc3)c3ccccc3)c(O)[nH]c2c1 + CNCc1ccccc1-c1csc(C(C)Nc2nc(C)nc3cc(OC)c(OC)cc23)c1,IC50,second compound 0.1 µM,1840 nM
same,IC50,second compound 0.316 µM,1140 nM
same,IC50,second compound 1 µM,727 nM
same,IC50,second compound 3.16 µM,< 31.6 nM
same,IC50,second compound 10 µM,< 31.6 nM
same,"viability, T/C",[5],97.4%
same,"viability, T/C",[26],94.1%
same,"viability, T/C",[31],120%
same,"viability, T/C",[32],92.6%
same,"viability, T/C",[33],12.3%
same,"viability, T/C",[34],6.55%
same,"viability, T/C",[10],101%
same,"viability, T/C",[27],102%
same,"viability, T/C",[35],105%
same,"viability, T/C",[36],56.5%
same,"viability, T/C",[37],0.86%
same,"viability, T/C",[38],1.8%
same,"viability, T/C",[15],104%
same,"viability, T/C",[28],109%
same,"viability, T/C",[39],101%
same,"viability, T/C",[40],30.5%
same,"viability, T/C",[41],0.19%
same,"viability, T/C",[42],0.16%
same,"viability, T/C",[20],25.5%
same,"viability, T/C",[29],20.5%
same,"viability, T/C",[43],0.12%
same,"viability, T/C",[44],0.06%
same,"viability, T/C",[45],0.03%
same,"viability, T/C",[46],0.1%
same,"viability, T/C",[25],0.13%
same,"viability, T/C",[30],0.12%
same,"viability, T/C",[47],0.1%
same,"viability, T/C",[48],0.08%
same,"viability, T/C",[49],0.09%
same,"viability, T/C",[50],0.14%
O=C(c1cc(Cc2n[nH]c(=O)c3ccccc23)ccc1F)N1CCN(C(=O)C2CC2)CC1 + CNCc1ccccc1-c1csc(C(C)Nc2nc(C)nc3cc(OC)c(OC)cc23)c1,IC50,second compound 0.1 µM,6450 nM
same,IC50,second compound 0.316 µM,6160 nM
same,IC50,second compound 1 µM,5690 nM
same,IC50,second compound 3.16 µM,639 nM
same,IC50,second compound 10 µM,< 31.6 nM
same,"viability, T/C",[5],110%
same,"viability, T/C",[26],101%
same,"viability, T/C",[31],95.6%
same,"viability, T/C",[32],114%
same,"viability, T/C",[33],78.6%
same,"viability, T/C",[34],32.4%
same,"viability, T/C",[10],107%
same,"viability, T/C",[27],102%
same,"viability, T/C",[35],111%
same,"viability, T/C",[36],106%
same,"viability, T/C",[37],73.8%
same,"viability, T/C",[38],32.7%
same,"viability, T/C",[15],104%
same,"viability, T/C",[28],97.2%
same,"viability, T/C",[39],108%
same,"viability, T/C",[40],104%
same,"viability, T/C",[41],66.9%
same,"viability, T/C",[42],33.8%
same,"viability, T/C",[20],94.8%
same,"viability, T/C",[29],107%
same,"viability, T/C",[43],94.1%
same,"viability, T/C",[44],16.2%
same,"viability, T/C",[45],45.6%
same,"viability, T/C",[46],3.95%
same,"viability, T/C",[25],0.19%
same,"viability, T/C",[30],0.21%
same,"viability, T/C",[47],0.19%
same,"viability, T/C",[48],0.14%
same,"viability, T/C",[49],0.14%
same,"viability, T/C",[50],0.19%

# — PubChem BioAssay AID1963875 (Molecular Pharmacology Branch, DTP, NCI, 2024)
